From PubChem BioAssay AID212 (DTP/NCI, 2004)
“And” between values parts separate entries of the source, which are not always exact repeats. Equal values may be shown once. Results filed as inconclusive are left out.

System: BDF1 mice, colon carcinoma 38 sc, T/C %
Assay: NCI In Vivo Anticancer Drug Screen. Data for tumor model Colon Carcinoma 38 (subcutaneous) in B6D2F1 (BDF1) mice
Conditions: endpoint: median tumor weight (est.), higher = larger tumour
Method in brief: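 T/C readout: treated group (T) measurement over vehicle control group (C) measurement. Endpoint is survival or tumor size in mice bearing a transplanted tumor.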

[1] = dose: 0.25 mg/kg/injection, schedule: Q07DX002 (ip), vehicle: Klucel (hydroxypropylcellulose) (HPC)
[2] = dose: 0.5 mg/kg/injection, schedule: Q07DX002 (ip), vehicle: Klucel (hydroxypropylcellulose) (HPC)
[3] = dose: 4.0 mg/kg/injection, schedule: Q07DX002 (ip), vehicle: Klucel (hydroxypropylcellulose) (HPC)
[4] = dose: 25.0 mg/kg/injection, schedule: Q07DX002 (ip), vehicle: saline with Tween-80
[5] = dose: 50.0 mg/kg/injection, schedule: Q07DX002 (ip), vehicle: saline with Tween-80
[6] = dose: 100.0 mg/kg/injection, schedule: Q07DX002 (ip), vehicle: saline with Tween-80
[7] = dose: 200.0 mg/kg/injection, schedule: Q07DX002 (ip), vehicle: saline with Tween-80
[8] = dose: 400.0 mg/kg/injection, schedule: Q07DX002 (ip), vehicle: saline with Tween-80

`COC1=C(C)C(=O)C2=C(C1=O)C1C3CC4=C(C(=O)C(OC)=C(C)C4=O)C(CNC(=O)C(C)=O)N3C(C#N)C(C2)N1C` (stereo unspecified) was tested, and the T/C (dose: 0.16 mg/kg/injection, schedule: Q07DX002 (ip), vehicle: Klucel (hydroxypropylcellulose) (HPC)) was 56 % of control, the T/C [1] was 98 % of control and the T/C (dose: 0.31 mg/kg/injection, schedule: Q07DX002 (ip), vehicle: Klucel (hydroxypropylcellulose) (HPC)) was 84 % of control. The T/C [2] was 84 % of control, the T/C (dose: 0.62 mg/kg/injection, schedule: Q07DX002 (ip), vehicle: Klucel (hydroxypropylcellulose) (HPC)) was 80 % of control and the T/C (dose: 1.0 mg/kg/injection, schedule: Q07DX002 (ip), vehicle: Klucel (hydroxypropylcellulose) (HPC)) was 87 % of control. For the same molecule, the T/C (dose: 1.25 mg/kg/injection, schedule: Q07DX002 (ip), vehicle: Klucel (hydroxypropylcellulose) (HPC)) was 53 % of control and 73 % of control, the T/C (dose: 2.0 mg/kg/injection, schedule: Q07DX002 (ip), vehicle: Klucel (hydroxypropylcellulose) (HPC)) was 72 % of control and the T/C [3] was 77 % of control.

In the case of `CC1(O)CC23CC(O)C4(O)C(CC(O)C4(C)C)C(C)(O)C2CCC1C3O` (stereo unspecified), the T/C [1] is reported as 102 % of control and the T/C [2] is reported as 53 % of control.

With `O=NN(CCCl)C(=O)NC1CCCCC1` the T/C (dose: 6.25 mg/kg/injection, schedule: Q07DX002 (ip), vehicle: Klucel (hydroxypropylcellulose) (HPC)) was 91 % of control, the T/C (dose: 10.0 mg/kg/injection, schedule: Q07DX003 (ip), vehicle: Klucel (hydroxypropylcellulose) (HPC)) was 71 % of control and the T/C (dose: 10.0 mg/kg/injection, schedule: Q07DX003 (ip), vehicle: carboxymethylcellulose (CMC)) was 53 % of control. For the same molecule, the T/C (dose: 12.5 mg/kg/injection, schedule: Q07DX002 (ip), vehicle: Klucel (hydroxypropylcellulose) (HPC)) was 64 % of control, the T/C (dose: 20.0 mg/kg/injection, schedule: Q07DX003 (ip), vehicle: Klucel (hydroxypropylcellulose) (HPC)) was 72 % of control and the T/C (dose: 20.0 mg/kg/injection, schedule: Q07DX003 (ip), vehicle: carboxymethylcellulose (CMC)) was 47 % of control. For the same molecule, the T/C (dose: 25.0 mg/kg/injection, schedule: Q07DX002 (ip), vehicle: Klucel (hydroxypropylcellulose) (HPC)) was 36 % of control, the T/C (dose: 40.0 mg/kg/injection, schedule: Q07DX003 (ip), vehicle: Klucel (hydroxypropylcellulose) (HPC)) was 44 % of control and the T/C (dose: 40.0 mg/kg/injection, schedule: Q07DX003 (ip), vehicle: carboxymethylcellulose (CMC)) was 24 % of control. The T/C (dose: 80.0 mg/kg/injection, schedule: Q07DX003 (ip), vehicle: Klucel (hydroxypropylcellulose) (HPC)) was 33 % of control.

`O=C1N=C(Oc2ccccc2)SC1=O` was tested, and the T/C (dose: 12.5 mg/kg/injection, schedule: Q07DX002 (ip), vehicle: saline with Tween-80) was 95 % of control, the T/C [4] was 62 % of control and 80 % of control and the T/C [5] was 53 % of control. The T/C [6] was 88 % of control and the T/C [7] was 118 % of control.

For `NC1=NCN(C2OC(CO)C(O)C2O)C(=O)N1` (stereo unspecified), the T/C (dose: 25.0 mg/kg/injection, schedule: Q07DX003 (ip), vehicle: saline) was 57 % of control and 71 % of control, the T/C (dose: 50.0 mg/kg/injection, schedule: Q07DX003 (ip), vehicle: saline) was 60 % of control and 79 % of control and the T/C (dose: 100.0 mg/kg/injection, schedule: Q07DX003 (ip), vehicle: saline) was 54 % of control and 75 % of control. For the same molecule, the T/C (dose: 400.0 mg/kg/injection, schedule: Q07DX003 (ip), vehicle: saline) was 57 % of control and 58 % of control, the T/C (dose: 600.0 mg/kg/injection, schedule: Q07DX003 (ip), vehicle: saline) was 94 % of control and the T/C (dose: 1000.0 mg/kg/injection, schedule: Q07DX003 (ip), vehicle: saline) was 79 % of control. The T/C (dose: 1200.0 mg/kg/injection, schedule: Q07DX003 (ip), vehicle: saline) was 63 % of control, the T/C (dose: 1400.0 mg/kg/injection, schedule: Q07DX003 (ip), vehicle: saline) was 84 % of control and the T/C (dose: 1600.0 mg/kg/injection, schedule: Q07DX003 (ip), vehicle: saline) was 47 % of control.

In the case of `NCCCNCCSP(=O)(O)O`, the T/C (dose: 6.25 mg/kg/injection, schedule: Q07DX002 (ip), vehicle: saline) is reported as 101 % of control, the T/C (dose: 12.5 mg/kg/injection, schedule: Q07DX002 (ip), vehicle: saline) is reported as 103 % of control and the T/C [4] is reported as 83 % of control. The T/C (dose: 25.0 mg/kg/injection, schedule: Q07DX002 (ip), vehicle: saline) was 81 % of control, the T/C [5] was 73 % of control and the T/C (dose: 50.0 mg/kg/injection, schedule: Q07DX002 (ip), vehicle: saline) was 109 % of control. For the same molecule, the T/C [6] was 91 % of control, the T/C (dose: 100.0 mg/kg/injection, schedule: Q07DX002 (ip), vehicle: saline) was 72 % of control and the T/C [7] was 82 % of control. The T/C (dose: 200.0 mg/kg/injection, schedule: Q07DX002 (ip), vehicle: saline) was 76 % of control and the T/C [8] was 82 % of control.

In the case of `O=C(O)c1ccc(C(=O)O)c(C(=O)O)c1.[NH-]C1CCCCC1[NH-].[Pt+2]`, the T/C (dose: 1.56 mg/kg/injection, schedule: Q07DX002 (ip), vehicle: sodium bicarbonate) is reported as 110 % of control, the T/C (dose: 3.12 mg/kg/injection, schedule: Q07DX002 (ip), vehicle: sodium bicarbonate) is reported as 124 % of control and the T/C (dose: 3.12 mg/kg/injection, schedule: Q07DX003 (ip), vehicle: sodium bicarbonate) is reported as 20 % of control. The T/C (dose: 6.25 mg/kg/injection, schedule: Q07DX002 (ip), vehicle: sodium bicarbonate) was 70 % of control, the T/C (dose: 6.25 mg/kg/injection, schedule: Q07DX003 (ip), vehicle: sodium bicarbonate) was 24 % of control and the T/C (dose: 12.5 mg/kg/injection, schedule: Q07DX003 (ip), vehicle: sodium bicarbonate) was 10 % of control. For the same molecule, the T/C (dose: 25.0 mg/kg/injection, schedule: Q07DX002 (ip), vehicle: sodium bicarbonate) was 20 % of control and 36 % of control and 44 % of control and the T/C (dose: 50.0 mg/kg/injection, schedule: Q07DX002 (ip), vehicle: sodium bicarbonate) was 33 % of control.

`CO[C@H]1C[C@@H]2CC[C@@H](C)[C@@](O)(O2)C(=O)C(=O)N2CCCC[C@H]2C(=O)O[C@H]([C@H](C)C[C@@H]2CC[C@@H](O)[C@H](OC)C2)CC(=O)[C@H](C)C=C(C)[C@@H](O)[C@@H](OC)C(=O)[C@H](C)C[C@H](C)/C=C/C=C/C=C1C` was tested, and the T/C (dose: 12.5 mg/kg/injection, schedule: Q07DX003 (ip), vehicle: saline with Tween-80) was 40 % of control and 45 % of control, the T/C (dose: 25.0 mg/kg/injection, schedule: Q07DX003 (ip), vehicle: saline with Tween-80) was 26 % of control and 45 % of control and the T/C (dose: 50.0 mg/kg/injection, schedule: Q07DX003 (ip), vehicle: saline with Tween-80) was 20 % of control and 39 % of control. The T/C (dose: 100.0 mg/kg/injection, schedule: Q07DX003 (ip), vehicle: saline with Tween-80) was 33 % of control, the T/C (dose: 200.0 mg/kg/injection, schedule: Q07DX003 (ip), vehicle: saline with Tween-80) was 14 % of control and 25 % of control and the T/C (dose: 400.0 mg/kg/injection, schedule: Q07DX003 (ip), vehicle: saline with Tween-80) was 14 % of control and 23 % of control.

With `C(=N/NC1=NCCN1)/c1c2ccccc2c(/C=N\NC2=NCCN2)c2ccccc12` the T/C (dose: 5.0 mg/kg/injection, schedule: Q07DX002 (ip), vehicle: suspension in saline) was 100 % of control, the T/C (dose: 10.0 mg/kg/injection, schedule: Q07DX002 (ip), vehicle: suspension in saline) was 109 % of control and the T/C (dose: 20.0 mg/kg/injection, schedule: Q07DX002 (ip), vehicle: suspension in saline) was 110 % of control. For the same molecule, the T/C (dose: 40.0 mg/kg/injection, schedule: Q07DX002 (ip), vehicle: suspension in saline) was 70 % of control.

With `Clc1ccc(C(c2ccc(Cl)cc2)C(Cl)(Cl)Cl)cc1` the T/C [3] was 123 % of control, the T/C (dose: 8.0 mg/kg/injection, schedule: Q07DX002 (ip), vehicle: Klucel (hydroxypropylcellulose) (HPC)) was 94 % of control and the T/C (dose: 16.0 mg/kg/injection, schedule: Q07DX002 (ip), vehicle: Klucel (hydroxypropylcellulose) (HPC)) was 112 % of control. The T/C (dose: 32.0 mg/kg/injection, schedule: Q07DX002 (ip), vehicle: Klucel (hydroxypropylcellulose) (HPC)) was 122 % of control.

In the case of `CC(=O)OCC1(C)NC(=O)c2ccccc2O1` (stereo unspecified), the T/C (dose: 56.2 mg/kg/injection, schedule: Q07DX002 (ip), vehicle: saline with Tween-80) is reported as 54 % of control, the T/C [6] is reported as 98 % of control and the T/C (dose: 112.5 mg/kg/injection, schedule: Q07DX002 (ip), vehicle: saline with Tween-80) is reported as 62 % of control. For the same molecule, the T/C [7] was 109 % of control, the T/C (dose: 225.0 mg/kg/injection, schedule: Q07DX002 (ip), vehicle: saline with Tween-80) was 69 % of control and the T/C [8] was 153 % of control. The T/C (dose: 450.0 mg/kg/injection, schedule: Q07DX002 (ip), vehicle: saline with Tween-80) was 48 % of control and the T/C (dose: 900.0 mg/kg/injection, schedule: Q07DX002 (ip), vehicle: saline with Tween-80) was 48 % of control.
